Literature values as cited in patent US7423042B2, “Compounds” (Glaxo Group Limited, priority 2005, dated 2008).

What was measured:
[1] = system: synthesis of pro-inflammatory proteins including IL-6, IL-8, GM-CSF, RANTES and COX-2; conditions: a number of different cell types
[2] = system: TGF-β-induced increases in fibronectin and thrombospondin; conditions: Laping et al., 2002

| SMILES | decreasing the synthesis of pro-inflammatory proteins (IL-6, IL-8, GM-CSF, RANTES, COX-2) [1] | inhibition of TGF-β-induced increases in fibronectin and thrombospondin [2] |
| --- | --- | --- |
| C[S+]([O-])c1ccc(-c2nc(-c3ccncc3)c(-c3ccc(F)cc3)[nH]2)cc1 (stereo not drawn) [SB-203580] | effective |  |
| COc1nccc(-c2c(-c3ccc(F)cc3)ncn2C2CCNCC2)n1 [SB-242235] |  | inhibited |
| Fc1ccc(-c2nc3n(c2-c2ccncc2)CCS3)cc1 [SK&F 86002] | effective |  |
